In this test the test system is MIA PaCa-2. The experiment in a line: SRB assay, cancer cell growth, pancreatic cancer cell line MIA PaCa-2. The format is cell-based. The settings on record: MIA PaCa-2. The procedure: As a comparison, omeprazole (KN510) and trimetazidine (KN713), a 3-ketoacyl CoA thiolase inhibitor, were co-treated. […] After cell inoculation, 96-well cell culture plates were incubated for 24 hours before the addition of experimental drugs. […] The cells were then incubated in a CO2 incubator for 48 hours, after which the assay was terminated by the addition of cold TCA. Cells were fixed in situ by gently adding 50 μl of cold 50% (w/v) TCA (final concentration: 10% TCA) and incubated at 4° C. for 60 min. The supernatant was discarded, and the plate was washed five times with distilled water and air dried. Sulforhodamine B (SRB) solution (100 μl) of 0.4% (w/v) in 1% acetic acid was added to each well, and the plate was left at room temperature for 10 min. After staining, unbound dye was removed by washing five times with 1% acetic acid, and the plate was air-dried. The bound dye was then solubilized with 10 mM trizma base, and the absorbance was recorded at 515 nm using an automated plate reader. […] The predicted synergistic activity of a combination of the present invention can be calculated using the Colby Equation in Equation 1 (S.R. Colby, Weeds, 1967, pp. 15, 20-22): α and β are the measured anti-cancer activity of each compound alone, and E is the predicted anti-cancer activity of a mixture of α and β as a prediction. In the present invention, the actual measure of anti-cancer activity of the combination treatment was the inhibition rate of cancer cell growth (%), and the predicted value (E) of the combination treatment was measured by substituting it into the above Colby Equation.
A general note: In SRB staining, fixed cells bind dye roughly in proportion to their protein.

For the compound `COc1ccc(CN2CCNCC2)c(OC)c1OC` [KN713, trimetazidine], the GI50 (Homo sapiens, 48 hours, read-out: GI50 (Half maximal growth inhibition concentration)) was determined as 1.81 mM. The “Cancer cell growth rate Average (%)” value is recorded as −29.68% (Conc. 10^−2M, Table 1); 95.03% (Conc. 10^−3M, Table 1); 95.50% (Conc. 10^−4M, Table 1); 94.52% (Conc. 10^−5M, Table 1); 97.75% (Conc. 10^−6M, Table 1); 97.85% (Conc. 10^−7M, Table 1). The “Cancer cell growth rate Average (%)” value (comparative example, Table 3, KN713 2.5 mM) was 88.90%.

Values taken from patent publication US20250170140A1, “PHARMACEUTICAL COMPOSITION FOR PREVENTING OR TREATING CANCER COMPRISING CARNITINE ACYLCARNITINE CARRIER INHIBITOR AND PEROXISOMAL BETA OXIDATION INHIBITOR” (priority 2021, published 2025).
